Assay results published in patent US20030092753A1, “Methods for the treatment and prevention of neurodegenerative conditions” (Wyeth, priority 1999, published 2003).

Tested on: rat hippocampal slices
Test: Reduction of azide-induced ischemic efflux of glutamate in rat hippocampal slices
Assay type: cell-based
Settings: AUC vs control, statistically significant
Protocol: Adatanserin was evaluated for its ability to reduce the azide-induced ischemic efflux of glutamate in rat hippocampal slices. Three Krebs buffers were used in the experiments. Normal Krebs buffer consisted of a solution containing the following: (122 mM NaCl, 3 mM KCl, 24 mM NaHCO3, 10 mM glucose, 0.315 mM K2HPO4, 1.2 mM MgSO4, 4 mM CaCl2). Aglycemic Krebs buffer was similar to the normal buffer with the exception that glucose was not added. Ischemic Krebs buffer was the aglycemic solution which contained varying concentrations of sodium azide (0-30 mM).
Rat hippocampi were dissected on a cold platform and suspended in ice cold oxygenated normal Krebs buffer. The tissue was cross-chopped at 350 microns on a McIlwain tissue chopper, then resuspended and washed three times with ice cold normal Krebs buffer. […] Amino acid concentrations were analyzed with reverse phase HPLC on a catacholarine column (Keystone Scinetific, 150×3 mm) employing an 0.05 M acetate/methanol gradient. […] Amino acids were visualized by derivatization with naphthalene-2,3-dicarboxaldehyde and fluorimetric detection (Dawson, L. A. et al., Improved Temporal Resolution of Microdialysis Measurement of Glutamate and Aspartate Using Capillary Electrophoresis with Laser Induced Fluorescence Detection. J. Chromatogr. B 1997, 694, 1204-1212). […]

SMILES: O=C(NCCN1CCN(c2ncccn2)CC1)C12CC3CC(CC(C3)C1)C2 [adatanserin, N-[2-[4-(2-pyrimidinyl)-1-piperazinyl]ethyl]tricyclo[3.3.1.13.7]decane-1-carboxamide]
- reduction of glutamate release (azide-induced ischemic efflux) (adatanserin 100 nM): 72%
- reduction of glutamate release (azide-induced ischemic efflux) (adatanserin 1000 nM (1 μM)): 71%
